For three compounds, MIC results are on record in patent publication US4331597A, “Penicillin compounds” (Meiji Seika Kaisha, Ltd., priority 1979, dated 1982).

SMILES strings stand for the structures. In brackets after ≈: the same amount, converted by molar mass. Structures can show the parent of a compound that is named as a salt.

What all share (assay): Minimum inhibitory concentration test, agar dilution method (plate)
Common to all, as to type: cell-based

For assay [1], the system named is Citrobacter freundii GN346 (CSase). Here is the method: (§1) Antimicrobial test (i.e., minimum inhibitory concentration test) on compounds obtained according to this invention was conducted according to the Japan chemotherapy method, using Apalcillin (PC-904) for comparison purposes.
(§2) Minimum Inhibitory Concentration(γ/ml)
(§3) in Agar Dilution Method (Plate)

The test system of the next assay is Escherichia coli 255. Here is the method:
as §1, §2, §3

For a further assay, the system named is Escherichia coli GN206. How it is done: as §1, §2, §3
The subject of assay [2] is Klebsiella pneumoniae GN69. Here is the method: as §1, §2, §3
The subject of assay [3] is Proteus morganii 1510 (CSase). The settings on record: Morganella morganii. How it is done: as §1, §2, §3
The subject of another assay is Proteus vulgaris OX19. How it is done:
as §1, §2, §3

For assay [4], the system named is Pseudomonas aeruginosa E-2. As to conditions: E2. How it is done:
as §1, §2, §3

Assay [5] deals with Pseudomonas aeruginosa M-0002. The settings on record: M0002. Here is the method: as §1, §2, §3
Assay [6] has as its system Pseudomonas capacia M-0501. As to conditions: M0501. Here is the method:
as §1, §2, §3

Assay [7] relates to Pseudomonas cepacia M-0513. As to conditions: Burkholderia cepacia, M0513. Here is the method:
as §1, §2, §3

In assay [8] the test system is Pseudomonas maltophilia 602. The settings on record: Stenotrophomonas maltophilia. How it is done:
as §1, §2, §3

For assay [9], the system named is Serratia marcescens No. 1. How it is done: as §1, §2, §3
Assay [10] deals with Serratia species GN629 (CSase). Here is the method:
as §1, §2, §3

For assay [11], the system named is Staphylococcus aureus 209PJC-1. As to conditions: 209PJC1. How it is done: as §1, §2, §3
Assay [12] has as its system Staphylococcus aureus Smiths-424. As to conditions: SMITHS424. How it is done: as §1, §2, §3
The test system of assay [13] is Streptococcus faecalis ATCC6633. The settings on record: Enterococcus faecalis. How it is done:
as §1, §2, §3

For the compound `COc1ccc(-c2ccc(C(=O)N[C@@H](C(=O)N[C@@H]3C(=O)N4[C@@H]3SC(C)(C)[C@@H]4C(=O)O)c3ccc(O)cc3)c(=O)[nH]2)cc1OC` [Example 1, sodium salt of 6-(3,4-dimethoxyphenyl)-1,2-dihydro-2-oxonicotinylamoxycillin], the MIC in [1] was determined as 6.25 µg/mL; against Escherichia coli 255, 12.5 µg/mL; against Escherichia coli GN206, 3.13 µg/mL; in [2] it was 25 µg/mL; in assay [3], 100 µg/mL; against Proteus vulgaris OX19, 0.39 µg/mL. In addition, the MIC in assay [4] was found to be 3.13 µg/mL; in [5] it was 0.78 µg/mL; in assay [6], 12.5 µg/mL; in [7], 12.5 µg/mL; in [8], 12.5 µg/mL; in assay [9], 0.78 µg/mL. The MIC is 6.25 µg/mL in assay [10], 0.39 µg/mL in assay [11], 0.39 µg/mL in [12] and 3.13 µg/mL in [13].
Regarding `COc1ccc(COc2ccc(-c3ccc(C(=O)N[C@@H](C(=O)N[C@@H]4C(=O)N5[C@@H]4SC(C)(C)[C@@H]5C(=O)O)c4ccc(O)cc4)c(=O)[nH]3)cc2OC)cc1OC` [Example 3, 6-[4-(3,4-dimethoxybenzyloxy)-3-methoxyphenyl]-1,2-dihydro-2-oxonicotinyl amoxycillin], the minimum inhibitory concentration (MIC) in [1] was determined as 1.56 µg/mL (≈ 2.06 µM); against Escherichia coli 255, 6.25 µg/mL (≈ 8.24 µM); in the assay with Escherichia coli GN206, 1.56 µg/mL (≈ 2.06 µM); in [2] it was 25 µg/mL (≈ 32.9 µM); in assay [3], 50 µg/mL (≈ 65.9 µM); against Proteus vulgaris OX19, 0.39 µg/mL (≈ 0.514 µM). The MIC in [4] amounted to 6.25 µg/mL (≈ 8.24 µM); in assay [5], 3.13 µg/mL (≈ 4.12 µM); in assay [6] it was 3.13 µg/mL (≈ 4.12 µM); in assay [7] it was 3.13 µg/mL (≈ 4.12 µM); in assay [8], 25 µg/mL (≈ 32.9 µM); in assay [9], 1.56 µg/mL (≈ 2.06 µM). Also, the MIC in [10] was 6.25 µg/mL (≈ 8.24 µM); in assay [11], 0.39 µg/mL (≈ 0.514 µM); in [12], 0.2 µg/mL (≈ 0.264 µM); in assay [13], 3.13 µg/mL (≈ 4.12 µM).
With `CC1(C)S[C@@H]2[C@H](NC(=O)[C@H](NC(=O)c3cnc4cccnc4c3O)c3ccccc3)C(=O)N2[C@H]1C(=O)O` [PC-904, reference compound], the MIC in [1] is 12.5 µg/mL (≈ 24 µM); in the assay on Escherichia coli 255, 50 µg/mL (≈ 95.9 µM); in the assay with Escherichia coli GN206 it was 25 µg/mL (≈ 47.9 µM); in [2] it was 50 µg/mL (≈ 95.9 µM); in assay [3], 100 µg/mL (≈ 192 µM); with Proteus vulgaris OX19, 0.39 µg/mL (≈ 0.748 µM). The MIC was found to be 1.56 µg/mL (≈ 2.99 µM) in assay [4]; 0.78 µg/mL (≈ 1.5 µM) in assay [5]; 12.5 µg/mL (≈ 24 µM) in assay [6]; 25 µg/mL (≈ 47.9 µM) in assay [7]; 50 µg/mL (≈ 95.9 µM) in [8]; 1.56 µg/mL (≈ 2.99 µM) in assay [9]. Further, the MIC came out at 25 µg/mL (≈ 47.9 µM) in assay [10], 0.39 µg/mL (≈ 0.748 µM) in assay [11], 0.39 µg/mL (≈ 0.748 µM) in [12] and 6.25 µg/mL (≈ 12 µM) in assay [13].
